Here are results for 1 compound from patent publication US10413535B2, “Pharmaceutical compositions comprising an integrin ALPHA4 antagonist for use in treating ocular inflammatory conditions” (AXEROVISION, INC., priority 2015, dated 2019).

The test system of data set [1] is J6 cell adhesion to MAdCAM. Description: MAdCAM cell adhesion assay, J6 cells. The class given is cell-based, human. On the procedure:
Jurkat J6 cells (human lymphoblast cell line) were grown as a suspension culture in RPMI 1640 supplemented with FCS (10%) and glutamine (2 mM). RPMI8866 cells (human B lymphoid cell line) were grown as a suspension culture in RPMI 1640 supplemented with FCS (10%) and glutamine (2 mM). RBL-2H3 cells (rat basophilic cell line) were cultured in Eagle's MEM plus Earles salts supplemented with 2 mM L-glutamine, 1 mM sodium pyruvate, 1× non-essential amino acids, 1 mM Na pyruvate 10% heat inactivated foetal calf serum.
Polystyrene 96-well microtitre plates were coated with IgG at a concentration of 0.05 mg/mL in bicarbonate buffer for 2.5 hours at 37° C. The solution was aspirated and the plates washed twice with PBS. The plates were then incubated overnight at 4° C. with MAdCAM at a concentration of 204.0 ng/mL in 3% BSA in PBS. Prior to use the MAdCAM was aspirated and the plates washed twice with PBS. J6 or RPMI cells (as required) were labelled with the fluorescent dye BCECF-AM (10 μM and 6×10^6 cells/mL) for 10 min at 37° C. before the excess was removed by centrifugation at 500 g for 5 min and the cells resuspended at a cell concentration of 1.2×10^7 cells/mL in HBSS. Equal volumes of HBSS containing the compound of formula I (over concentration range 38.1 pM to 10 μM) and cells were added to the MAdCAM coated plates. […] The plates were counted in a Wallac Viktor.

A further data set has as its target T1, integrin α4 (Homo sapiens, UniProt P13612).
T1 sequence (P13612 34-1032): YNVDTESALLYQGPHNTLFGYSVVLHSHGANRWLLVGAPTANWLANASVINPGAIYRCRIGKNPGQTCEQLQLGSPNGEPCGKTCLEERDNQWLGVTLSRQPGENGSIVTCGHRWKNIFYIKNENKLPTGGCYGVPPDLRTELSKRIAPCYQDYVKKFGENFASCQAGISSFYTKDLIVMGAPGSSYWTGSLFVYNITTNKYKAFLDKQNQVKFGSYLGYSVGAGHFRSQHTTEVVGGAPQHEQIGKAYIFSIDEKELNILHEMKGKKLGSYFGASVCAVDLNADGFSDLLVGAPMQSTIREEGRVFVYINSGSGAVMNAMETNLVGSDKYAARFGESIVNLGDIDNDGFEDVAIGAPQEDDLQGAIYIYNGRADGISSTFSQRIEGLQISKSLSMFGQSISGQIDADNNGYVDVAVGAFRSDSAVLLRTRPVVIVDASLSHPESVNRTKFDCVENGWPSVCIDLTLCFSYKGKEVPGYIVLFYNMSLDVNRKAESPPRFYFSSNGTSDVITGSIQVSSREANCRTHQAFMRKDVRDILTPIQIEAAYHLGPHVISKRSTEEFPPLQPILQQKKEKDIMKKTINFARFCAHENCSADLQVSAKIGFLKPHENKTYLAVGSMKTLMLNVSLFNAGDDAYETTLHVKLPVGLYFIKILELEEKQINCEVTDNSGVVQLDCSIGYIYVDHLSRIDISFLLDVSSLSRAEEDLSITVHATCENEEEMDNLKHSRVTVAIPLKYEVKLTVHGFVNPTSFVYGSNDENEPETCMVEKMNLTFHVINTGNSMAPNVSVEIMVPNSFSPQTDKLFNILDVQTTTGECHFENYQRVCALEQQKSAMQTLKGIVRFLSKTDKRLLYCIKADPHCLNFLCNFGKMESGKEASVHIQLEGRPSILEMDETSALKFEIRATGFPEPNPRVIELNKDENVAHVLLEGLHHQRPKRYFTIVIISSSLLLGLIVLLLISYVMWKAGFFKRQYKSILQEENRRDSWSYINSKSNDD
Description: IC50/IC90 concentrations and required tissue levels quoted in FIG. 6 legend.

Several values for one entry are separate records, joined by “and”; a condition that tells them apart may be missing. Equal values may be shown once. Read-outs that look alike come from different tables or passages of the source.

As for `Cc1ccccc1OCC(=O)N[C@@H](CC(C)C)C(=O)N[C@@H](Cc1ccc(OC(=O)N2CCC(C(N)=O)CC2)cc1)C(=O)O` [GW559090, (2S)-3-[4-({[4-(Aminocarbonyl)-1-piperidinyl]carbonyl}oxy)phenyl]-2-[((2S)-4-methyl-2-{[2-(2-methylphenoxy)acetyl]amino}pentanoyl)amino]propanoic acid], the “Inhibition of J6 cell adhesion to MAdCAM (curve form)” value in data set [1] is on record as “biphasic”. Moreover, the IC50 at integrin α4 (FIG. 6 legend, read-out: 1050 concentration (converted)) was ~8 nM and ~8.38 nM. The IC90 on integrin α4 (FIG. 6 legend, read-out: IC90 concentration) was ~80 nM and ~0.048 µg/mL; at integrin α4 (if protein binding is 98%, read-out: Approximate tissue level required to achieve the IC90 concentration), ~4 µM and ~2.4 µg/mL. Besides, on integrin α4 (if protein binding is 98%), the “Approximate tissue level required to achieve the 1050 concentration” value is ~400 nM and ~240 ng/mL.
